Blank lines part the entries; values can stand above or below the compound they belong to.
Key:
[1] = stability of stock solutions and working solutions; assay type: physicochemical; details: for time stock solutions and working standard stable at refrigerator temperature: refrigerator temperature (below 10°C)
Protocol: (§1) The stability of linifanib in rat plasma during the sample storage and processing conditions was assessed by analyzing six replicates of LQC and HQC. Short-term stability was assessed after keeping the plasma samples at ambient temperature for ∼ 6 h, the freeze–thaw stability was determined after three cycles of freeze-thaw. Post-preparative stability was determined by storing the reconstituted QC samples for ∼ 48 h under autosampler conditions (maintained at 10°C) before being analyzed. Long-term stability was assessed after storage of the test samples at around −80°C for 30 days. The working solutions and stock solutions of linifanib and the IS were also evaluated for stability at room temperature for 12 h and at refrigerator temperature (below 10°C) for 15 days. The samples were considered stable in plasma at each concentration if the deviation from the mean calculated concentration of quality control samples were within ±15%.

[2] = stability of linifanib in rat plasma during sample storage and processing; assay type: in vitro ADME; details: for Accuracy (%) / Mean ± SD concentration found: n = 6
Protocol: as §1

[3] = pilot pharmacokinetic study of linifanib in rats (oral); assay type: in vivo; details: male, Wistar albino, plasma, rat, 5 mg/kg oral, single dose
Protocol: After an overnight fasting, all rats received linifanib (5 mg/kg, oral, dissolved in HPMC). Blood samples (approximately 0.5 mL) were collected from the retro-orbital plexus into heparinized microfuge tubes at different time interval after linifanib administration and plasma samples were harvested by centrifuging the blood at 4500 rpm for 8 min and stored frozen at −80 ± 10°C until analysis. The pharmacokinetic parameters: Cmax, Tmax, AUC, t½ and Kel were calculated using WinNonlin software.

[4] = set-up: method as in PMID 22382879, PMID 19720910; details: phase I study, cited from earlier work
[5] = rat plasma, 30 days at −80°C, nominal 1.28 ng/mL
[6] = rat plasma, 30 days at −80°C, nominal 425 ng/mL
[7] = rat plasma, bench top (6 hrs), nominal 1.28 ng/mL
[8] = rat plasma, bench top (6 hrs), nominal 425 ng/mL
[9] = rat plasma, freeze thaw (3 cycle), nominal 1.28 ng/mL
[10] = rat plasma, freeze thaw (3 cycle), nominal 425 ng/mL
[11] = reconstituted QC samples in injector (48 hrs, 10°C), nominal 1.28 ng/mL
[12] = reconstituted QC samples in injector (48 hrs, 10°C), nominal 425 ng/mL

time stock solutions and working standard stable at refrigerator temperature [1]: 15 days | time stock solutions and working standard stable at room temperature [1]: 12 h
Compound: CCN(CC)CCNC(=O)c1c(C)[nH]c(/C=C2\C(=O)Nc3ccc(F)cc32)c1C [IS, sunitinib]

time stable in autosampler ([2]; autosampler maintained at 10°C): 48 h | Accuracy (%) [2, 5]: 98.3% | Mean ± SD concentration found [2, 5]: 1.26 ± 0.10 ng/mL | Accuracy (%) [2, 6]: 90.5% | Mean ± SD concentration found [2, 6]: 384 ± 20.2 ng/mL | Accuracy (%) [2, 7]: 105.0% | Mean ± SD concentration found [2, 7]: 1.35 ± 0.06 ng/mL | Accuracy (%) [2, 8]: 92.7% | Mean ± SD concentration found [2, 8]: 393 ± 34.8 ng/mL | Accuracy (%) [2, 9]: 101.1% | Mean ± SD concentration found [2, 9]: 1.30 ± 0.10 ng/mL | Accuracy (%) [2, 10]: 90.7% | Mean ± SD concentration found [2, 10]: 385 ± 14.3 ng/mL | Accuracy (%) [2, 11]: 110.6% | Mean ± SD concentration found [2, 11]: 1.42 ± 0.09 ng/mL | Accuracy (%) [2, 12]: 107.2% | Mean ± SD concentration found [2, 12]: 455 ± 19.8 ng/mL | time stable in rat plasma at around −80°C ([2]; spiked into rat plasma, around −80°C): up to 30 days | time stable in rat plasma at room temperature ([2]; spiked into rat plasma, room temperature): at least 6.0 h | freeze-thaw stability in rat plasma ([2]; spiked into rat plasma, three freeze-thaw cycle): stable | k el [3]: 2.78e-05 s⁻¹ | half-life ([3]; read-out: average t½ (converted)): 6.67 h | AUC(0-t) ([3]; read-out: mean AUC0-8h): 232 ng·h/mL | Cmax ([3]; read-out: mean peak plasma concentration (Cmax)): 55.1 ng/mL | Tmax ([3]; read-out: time to peak plasma concentration (Tmax)): 2.5 h | time stock solutions and working standard stable at refrigerator temperature [1]: 15 days | time stock solutions and working standard stable at room temperature [1]: 12 h
Compound: Cc1ccc(F)c(NC(=O)Nc2ccc(-c3cccc4[nH]nc(N)c34)cc2)c1 [linifanib, N-(4-(3-amino-1H-indazol-4-yl)phenyl)-N'-(2-fluoro-5-methylphenyl)urea]
time to peak plasma concentration ([4]; across all dose levels): approx. 2 h | dose recovered as unchanged in urine [4]: 15% | oral clearance [4]: 2.7 L/h | pharmacokinetics (dose and time dependence) [4]: dose proportional and time invariant
